Test results: patent publication US11181447B2, “Apparatus and method for determination of the fine particle dose of a powder inhalation formulation” (NANOPHARM LIMITED, priority 2016, dated 2021)

Assay: Paddle dissolution test (USP 711) of the aerosol dose collected on a filter in the apparatus of the invention
Assay type: physicochemical
Conditions: drug loading 50-500 μg, surface coverage 3.89-38.92 μg/cm^2; 1, 2, 5 and 10 actuations; DPI and MDI
Description: In accordance with one embodiment of the invention, collected particles are subjected to a dissolution test. Dissolution tests are widely practised in the art and the selection of suitable dissolution media and methods for particles collected from a given drug formulation are a routine matter for those skilled in the art. One such test, which may be expediently used, is the paddle dissolution test (US Pharmocopeial Convention 2011, 711, Dissolution, Paddle Apparatus). Illustrative commonly used dissolution media include e.g. phosphate buffered saline (PBS) solution either with or without the addition of a surfactant (e.g. Tween 20, Tween 80, SDS etc.). The solution can be chemically analysed, for example by HPLC, to determine the mass collected.
Collection of the samples of FIGS. 7A and 7B was accomplished in an apparatus according to FIG. 4 in which a glass microfibre filter (Pall Corporation, A/E filter) having a nominal filter pore size of 1 μm was used. The reference scale on each image of FIGS. 7A and 7B corresponds to 10 μm.
In each run, after the relevant number of doses had been delivered into the device, the filter was removed and the collected mass dissolved in phosphate buffered saline (PBS) solution using the paddle dissolution method (USP 711, 2011) and chemically analysed by HPLC to determine the mass collected. […]

SMILES: CCC(=O)O[C@]1(C(=O)SCF)[C@H](C)C[C@H]2[C@@H]3C[C@H](F)C4=CC(=O)C=C[C@]4(C)[C@@]3(F)[C@@H](O)C[C@@]21C [fluticasone propionate]
- dependence of dissolution release profiles on drug loading: independent of drug loading
